# Experimental data published in article PMC11730522 (BMC Pharmacology & Toxicology, 2025).
# Assay: Pharmacokinetic study, plasma EZ levels by HPLC
# Format: in vivo, rats
structure (smiles),measurement,setting,value
"O=C1[C@H](CC[C@H](O)c2ccc(F)cc2)[C@@H](c2ccc(O)cc2)N1c1ccc(F)cc1 [EZ, Ezetimibe]",drop of plasma level of EZ from the highest level,after 4 h,50%
same,Tmax,"rat, plasma, po, 10 mg/kg",2 h
same,peak plasma concentration of EZ,"rats, oral",24.36 ± 1.36 µg/mL
